Experiments:
Format in all cases: cell-based
[1] = biological target: KCNQ1-R243A (Homo sapiens, UniProt P51787, R243A); test: TEVC of R243A KCNQ1 channels
Description: (§1) As previously described (12), we generated cRNA transcripts encoding human KCNA1, KCNE1, KCNE2, KCNE3, KCNQ1, KCNQ2, KCNQ3, KCNQ4 or KCNQ5 by in vitro transcription using the T7 polymerase mMessage mMachine kit (Thermo Fisher Scientific), after vector linearization, from cDNA sub-cloned into plasmids incorporating Xenopus laevis β-globin 5′ and 3′ UTRs flanking the coding region to enhance translation and cRNA stability. We quantified cRNA by spectrophotometry. We generated mutant KCNQ2 and KCNQ3 cDNAs by site-directed mutagenesis with a QuikChange kit (Stratagene, San Diego, Calif.) and prepared the cRNAs as above. We injected defolliculated stage V and VI Xenopus laevis oocytes (Ecocyte Bioscience, Austin, Tex. and Xenoocyte, Dexter, Mich., US) with KCNE and/or KCNQ cRNAs (5-20 ng). […]
(§2) We performed TEVC at room temperature using an OC-725C amplifier (Warner Instruments, Hamden, Conn.) and pClamp10 software (Molecular Devices, Sunnyvale, Calif.) 2-5 days after cRNA injection as described in the section above. […] We recorded currents in response to voltage pulses between −120 or −80 mV and +40 mV at 20 mV intervals from a holding potential of −80 mV, to yield current-voltage relationships, current magnitude, and for quantifying activation rate. We analyzed data using Clampfit (Molecular Devices) and Graphpad Prism software (GraphPad, San Diego, Calif., USA); values are stated as mean±SEM. […]

[2] = biological target: KCNQ1/KCNE3 (Homo sapiens, UniProt P51787); test: TEVC of KCNQ1/KCNE3 channels
Description: as §1, §2

[3] = biological target: KCNQ1-R243A/KCNE1 (Homo sapiens, UniProt P51787, R243A); test: TEVC of R243A KCNQ1/KCNE1 channels
Description: as §1, §2

[4] = biological target: KCNQ3/KCNQ5 (Homo sapiens, UniProt O43525+Q9NR82); test: TEVC of KCNQ3/KCNQ5 channels; settings: similar potency
Description: as §1, §2

[5] = biological target: KCNQ2/KCNQ3-R242A (Homo sapiens, UniProt O43525+O43526, R242A); test: TEVC of KCNQ2/KCNQ3-R242A channels
Description: as §1, §2

[6] = biological target: KCNA1 (Homo sapiens, UniProt Q09470); test: TEVC of KCNA1 expressed in Xenopus oocytes
KCNA1, sequence (Q09470 whole entry): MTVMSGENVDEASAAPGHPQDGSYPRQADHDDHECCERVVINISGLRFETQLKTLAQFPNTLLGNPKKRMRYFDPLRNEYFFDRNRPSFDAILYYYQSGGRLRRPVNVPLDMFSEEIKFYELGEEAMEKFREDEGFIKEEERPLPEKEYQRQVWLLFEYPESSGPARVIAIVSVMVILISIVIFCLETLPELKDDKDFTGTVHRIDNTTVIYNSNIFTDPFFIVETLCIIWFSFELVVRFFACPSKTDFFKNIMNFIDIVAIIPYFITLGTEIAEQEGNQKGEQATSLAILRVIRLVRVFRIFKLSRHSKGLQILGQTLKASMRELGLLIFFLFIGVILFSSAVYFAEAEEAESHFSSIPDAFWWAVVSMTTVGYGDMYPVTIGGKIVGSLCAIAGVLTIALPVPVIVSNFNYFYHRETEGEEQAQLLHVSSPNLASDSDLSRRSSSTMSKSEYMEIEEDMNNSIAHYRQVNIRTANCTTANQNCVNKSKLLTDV
Description: cRNA transcripts encoding human KCNA1, KCNQ1, KCNQ2, KCNQ3, KCNQ4, or KCNQ5 were generated by in vitro transcription using the T7 polymerase message machine kit (Thermo Fisher Scientific), after vector linearization, from cDNA sub-cloned into plasmids incorporating X. laevis β-globin 5′ and 3′ UTRs flanking the coding region to enhance translation and cRNA stability. cRNA was quantified by spectrophotometry. Mutant cDNAs were generated by site-directed mutagenesis using a QuikChange kit according to manufacturer's protocol (Stratagene, San Diego, Calif.) and corresponding cRNAs prepared as above. Defolliculated stage V and VI X. laevis oocytes (Ecocyte Bioscience, Austin, Tex.) were injected with Kv channel a subunit cRNAs (10 ng total per oocyte). […]
TEVC recording was performed at room temperature with an OC-725C amplifier (Warner Instruments, Hamden, Conn.) and pClamp10.2 software (Molecular Devices, Sunnyvale, Calif.) 3-5 days after cRNA injection as described in the section above. […] Currents were recorded in response to pulses between −80 and +40 mV at 20 mV intervals, or a single pulse to +40 mV, from a holding potential of −80 mV, to yield current-voltage relationships, current magnitude, and for quantifying activation rate. […]

SMILES | effect of R243A mutation on (E)-2-dodecenal action in KCNQ1 [1] | effect on KCNQ1/KCNE3 (in words) [2] | effect of R243A mutation on (E)-2-dodecenal action in KCNQ1/KCNE1 [3] | efficacy on KCNQ3/KCNQ5, lower than on KCNQ5 [4] [%] | response of KCNQ2/KCNQ3-R242A (in words) [5] | effect on KCNA1 (in words) [6]
CCCCCCCCC/C=C/C=O [(E)-2-dodecenal] | slightly increased (E)-2-dodecenal efficacy | activated | reduced (E)-2-dodecenal efficacy twofold | ~30 | almost as much as wild-type KCNQ2/3 | –
CC(=O)c1c(O)c(C)c(O)c(Cc2c(O)c3c(c(C(=O)/C=C/c4ccccc4)c2O)OC(C)(C)C=C3)c1O [MTX, mallotoxin] | – | – | – | – | – | no effect

— US12268683B2, “Compounds and methods for synergistic activation of M channels” (THE REGENTS OF THE UNIVERSITY OF CALIFORNIA, priority 2018, dated 2025)
